In publication PMC7722354, “7-Substituted 2-Nitro-5,6-dihydroimidazo[2,1-b][1,3]oxazines: Novel Antitubercular Agents Lead to a New Preclinical Candidate for Visceral Leishmaniasis” (Journal of Medicinal Chemistry, 2017) one finds MIC and IC50 data, which are given here for 19 compounds.

Structures are written as SMILES. In brackets after ≈: the same amount, converted by molar mass.

What is called MIC is the lowest concentration found to suppress growth. A word on the IC50: it is the concentration that gives 50% inhibition.

The test system of assay [1] is M. tb, strain H37Rv. Nature of the assay: LORA minimum inhibitory concentration assay (hypoxic). In kind it is cell-based. Particulars: Mycobacterium tuberculosis.
The subject of assay [2] is M. tb, strain H37Rv. Briefly: MABA minimum inhibitory concentration assay (aerobic). In kind it is cell-based, Mycobacterium tuberculosis.
In a further assay the test system is Leishmania donovani. Nature of the assay: L. don amastigote mouse macrophage-based luciferase assay (CDRI). In kind it is cell-based. Particulars: in mouse macrophages, single test (CDRI).
The next assay relates to Trypanosoma cruzi. Nature of the assay: T. cruzi growth inhibition on MRC-5 cells (LMPH). In kind it is cell-based. The conditions noted are these: MRC5.
In assay [3] the test system is human lung fibroblasts (MRC-5 cells). Briefly: cytotoxicity toward MRC-5 cells (LMPH). In kind it is cell-based. The conditions noted are these: MRC5.
The test system of the next assay is Leishmania infantum. Nature of the assay: L. inf growth inhibition in mouse macrophages (LMPH). In kind it is cell-based. The conditions noted are these: Macrophage, mean of at least two determinations.
The mark [4] stands for this setting: Mycobacterium tuberculosis, H37RV, read-out: MIC MABA, aerobic.
[5] abbreviates: Mycobacterium tuberculosis, H37RV, aerobic, read-out: MIC MABA.

With `O=[N+]([O-])c1cn2c(n1)O[C@H](COc1ccc(-c3ccc(OC(F)(F)F)cc3)nc1)CC2` [compound 95], the MIC against M. tb, strain H37Rv [1] is 1.6 µM (≈ 0.698 µg/mL); with M. tb, strain H37Rv [2] (setting [4]), 0.34 µM (≈ 0.148 µg/mL).
In the assay on Leishmania donovani, `O=[N+]([O-])c1cn2c(n1)OC(COc1ccc(-c3ccc(F)cc3F)nc1)CC2` (stereo not drawn) [compound 91] came in with an IC50 of 0.02 µM. The MIC with M. tb, strain H37Rv [1] came out at 8.9 µM (≈ 3.46 µg/mL); in the assay on M. tb, strain H37Rv [2] (setting [4]) it was 0.36 µM (≈ 0.14 µg/mL).
In the assay on Leishmania donovani, `O=[N+]([O-])c1cn2c(n1)OC(COc1ccc(-c3ccc(C(F)(F)F)nc3)cn1)CC2` (stereo not drawn) [compound 111] returned an IC50 of 0.13 µM. Also, the MIC in the assay with M. tb, strain H37Rv [1] was 2.5 µM (≈ 1.05 µg/mL); in the assay on M. tb, strain H37Rv [2] (setting [4]), 0.09 µM (≈ 0.0379 µg/mL).
The compound `O=[N+]([O-])c1cn2c(n1)OC(CN1CCN(c3ccc(F)cc3)CC1)CC2` (stereo not drawn) [compound 142, 7-{[4-(4-Fluorophenyl)piperazin-1-yl]methyl}-2-nitro-6,7-dihydro-5H-imidazo[2,1-b][1,3]oxazine] registered an IC50 in the assay on Leishmania donovani of 0.19 µM. Further, the MIC with M. tb, strain H37Rv [1] worked out at 9.9 µM (≈ 3.58 µg/mL); in the assay with M. tb, strain H37Rv [2] (setting [4]), 1.8 µM (≈ 0.65 µg/mL).
In the case of `CC1(COc2ccc(-c3ccc(F)nc3)cn2)CCn2cc([N+](=O)[O-])nc2O1` (stereo not drawn) [compound 108], in the assay on Leishmania donovani, the IC50 came to 0.22 µM. Moreover, the MIC in the assay on M. tb, strain H37Rv [1] is 6.2 µM (≈ 2.39 µg/mL); in the assay on M. tb, strain H37Rv [2] (setting [4]) it was 1.9 µM (≈ 0.732 µg/mL).
Turning to `O=[N+]([O-])c1cn2c(n1)OC(COCc1ccc(OCc3ccccc3)cc1)CC2` (stereo not drawn) [compound 22], the half-maximal inhibitory concentration (IC50) in the assay with Leishmania donovani is 0.05 µM. The compound further yielded an MIC in the assay with M. tb, strain H37Rv [1] of 3 µM (≈ 1.19 µg/mL).
With `O=[N+]([O-])c1cn2c(n1)OC(COc1ccc(-c3ccc(OC(F)(F)F)cc3)nc1)CC2` (stereo not drawn) [compound 93], in the assay on Leishmania donovani, it took 0.05 µM to reach half-maximal inhibition (IC50). Moreover, the MIC was 0.86 µM (≈ 0.375 µg/mL) with M. tb, strain H37Rv [1]; 0.02 to 0.04 µM (≈ 0.00873 to 0.0175 µg/mL) in the assay with M. tb, strain H37Rv [2] (setting [4]); 0.032 µM (≈ 0.014 µg/mL) with M. tb, strain H37Rv [2] (aerobic, read-out: MIC MABA).
Compound `O=[N+]([O-])c1cn2c(n1)OC(CN1CCC(Oc3ccc(F)cc3)CC1)CC2` (stereo not drawn) [compound 152] came in with an IC50 in the assay with Leishmania donovani of 0.45 µM. Moreover, the MIC was found to be 22 µM (≈ 8.28 µg/mL) in the assay on M. tb, strain H37Rv [1] and 2 µM (≈ 0.753 µg/mL) with M. tb, strain H37Rv [2] (setting [4]).
Turning to `CC1(COCc2ccc(OCc3ccccc3)cc2)CCn2cc([N+](=O)[O-])nc2O1` (stereo not drawn) [compound 23], the IC50 with Leishmania donovani came out at 0.28 µM. Also, the MIC against M. tb, strain H37Rv [1] worked out at 1.4 µM (≈ 0.573 µg/mL); in the assay on M. tb, strain H37Rv [2] (setting [5]), 0.2 µM (≈ 0.0819 µg/mL).
On to `O=[N+]([O-])c1cn2c(n1)OC(COc1ccc(-c3ccc(F)nc3)nc1)CC2` (stereo not drawn) [compound 112], for which the IC50 in the assay on Leishmania donovani stood at 0.09 µM. In addition, the MIC against M. tb, strain H37Rv [1] was 21 µM (≈ 7.8 µg/mL); in the assay with M. tb, strain H37Rv [2] (setting [4]), 2.3 µM (≈ 0.854 µg/mL).
On to `CC1(COCc2ccc(-c3ccc(OC(F)(F)F)cc3)cc2)CCn2cc([N+](=O)[O-])nc2O1` (stereo not drawn) [compound 29], for which the MIC was 1.4 µM (≈ 0.649 µg/mL) against M. tb, strain H37Rv [1] and 0.093 µM (≈ 0.0431 µg/mL) in the assay on M. tb, strain H37Rv [2] (setting [4]).
Taken in the same sequence, the figures for `CC1(COC2CCN(c3ccc(F)cc3)CC2)CCn2cc([N+](=O)[O-])nc2O1` (stereo not drawn) [compound 178] were 19 µM (≈ 7.42 µg/mL) and 0.37 µM (≈ 0.144 µg/mL).
In turn, `O=[N+]([O-])c1cn2c(n1)OC(COc1ccc(OC(F)(F)F)cc1)CC2` (stereo not drawn) [compound 39] gave an IC50 in the assay on Leishmania donovani of 0.04 µM. For the same compound, the MIC against M. tb, strain H37Rv [1] stood at 4.7 µM (≈ 1.69 µg/mL); with M. tb, strain H37Rv [2] (setting [4]), 5.2 µM (≈ 1.87 µg/mL).
In the assay with Leishmania donovani, `O=[N+]([O-])c1cn2c(n1)OC(COc1ccc(-c3ccc(F)nc3)cn1)CC2` (stereo not drawn) [compound 107] gave an IC50 of 0.27 µM. Moreover, the MIC is 15 µM (≈ 5.57 µg/mL) in the assay on M. tb, strain H37Rv [1] and 0.074 µM (≈ 0.0275 µg/mL) in the assay with M. tb, strain H37Rv [2] (setting [4]).
Regarding `C[C@@]1(COCc2ccc(-c3ccc(OC(F)(F)F)cc3)cc2)CCn2cc([N+](=O)[O-])nc2O1` [compound 38], the MIC turned out to be 6.8 µM (≈ 3.15 µg/mL) in the assay on M. tb, strain H37Rv [1] and 0.74 µM (≈ 0.343 µg/mL) in the assay with M. tb, strain H37Rv [2] (setting [4]).
For `CC1(COc2ccc(-c3ccc(F)nc3F)cn2)CCn2cc([N+](=O)[O-])nc2O1` (stereo not drawn) [compound 110], the IC50 was 0.43 µM in the assay on Trypanosoma cruzi, above 64 µM in assay [3] and 0.2 µM in the assay on Leishmania infantum. The MIC was found to be 6.6 µM (≈ 2.66 µg/mL) against M. tb, strain H37Rv [1] and 1 µM (≈ 0.403 µg/mL) with M. tb, strain H37Rv [2] (setting [5]).
Turning to `CC1(COc2ccc(OCc3ccccc3)cc2)CCn2cc([N+](=O)[O-])nc2O1` (stereo not drawn) [compound 47], 0.12 µM corresponded to half-maximal inhibition with Leishmania donovani (IC50). Also, the MIC in the assay with M. tb, strain H37Rv [1] is above 128 µM; with M. tb, strain H37Rv [2] (setting [5]), 0.44 µM (≈ 0.174 µg/mL).
As for `CC1(COc2ccc(-c3ccc(F)nc3)nc2)CCn2cc([N+](=O)[O-])nc2O1` (stereo not drawn) [compound 113], the IC50 in the assay on Leishmania donovani came to 0.09 µM. The MIC against M. tb, strain H37Rv [1] is 43 µM (≈ 16.6 µg/mL); in the assay on M. tb, strain H37Rv [2] (setting [4]), 2.7 µM (≈ 1.04 µg/mL).
With `CC1(COc2cccc(-c3ccc(F)nc3)n2)CCn2cc([N+](=O)[O-])nc2O1` (stereo not drawn) [compound 118], the IC50 was 0.52 µM in the assay with Trypanosoma cruzi, above 64 µM in assay [3] and 1.1 µM in the assay on Leishmania infantum. Besides, the minimal inhibitory concentration (MIC) in the assay on M. tb, strain H37Rv [1] was 7.8 µM (≈ 3.01 µg/mL); with M. tb, strain H37Rv [2] (setting [5]), 11 µM (≈ 4.24 µg/mL).
